Measured values reported in publication PMC8556085, “Antimicrobial and Antioxidant Secondary Metabolites from Trifolium baccarinii Chiov. (Fabaceae) and Their Mechanisms of Antibacterial Action” (BioMed Research International, 2021).
Marks after values point to notes of the source that are not given here.

Key:
[1] = Gallic acid equivalent antioxidant capacity (GEAC) assay; conditions: ABTS radical, 420 nm, 240 s; mean ± SD
In short: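 Purified Sclerotinia sclerotiorum laccase oxidises ABTS in acetate buffer pH 5.0 (100 mM); ABTS●+ read at 420 nm after 240 s. Samples at 10–800 μg/mL (extracts) or 12.5–200 μg/mL (isolated compounds) in assay. Values expressed as gallic acid equivalents from a 0–84 μM gallic acid calibration curve; triplicates, three repeats.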

[2] = tested on: Pseudomonas aeruginosa ATCC27853; assay: Bacteriolytic assay (time-kill kinetic method, OD600); assay type: cell-based; conditions: Pseudomonas aeruginosa suspension, 2xMIC, after 240 min, compared to the 0 time value
Procedure: (§1) (1) Bacteriolytic Assay. […] Full growth of bacterium in MHB was diluted 100 times and incubated at 37°C to produce an OD600 of 0.8 as a starting inoculum. Sample solutions were added to the starting bacterial suspension to give a final concentration of 2xMIC and incubated at 37°C under agitation at 150 rpm. After the incubation period corresponding to 0, 15, 30, 60, 120, and 240 min, 100 μL was pipetted from each tube and the optical density was recorded at 600 nm using the Biobase UV-Vis spectrophotometer. Corresponding dilutions of test samples were used as blanks. Oxacillin was used as a positive control, and the tubes without an extract/compound served as negative controls. All the measurements were done in triplicate and repeated three times.

[3] = tested on: Staphylococcus aureus ATCC25923; assay: as above; assay type: cell-based; conditions: Staphylococcus aureus ATCC25923 suspension, 2xMIC, after 240 min, compared to the 0 time value
Procedure: as §1

catalase = assay: Catalase activity in treated bacterial cell lysates; assay type: cell-based; conditions: Staphylococcus aureus ATCC25923 and MRSA03, MIC and 1/2xMIC, 24 h
Procedure: (§2) (3) Antioxidant Enzyme Activities. For evaluation of catalase and superoxide dismutase (SOD) activities, Staphylococcus aureus ATCC25923 and MRSA03 (1.5 × 10^8 CFU/mL, 500 μL) cultures from the late exponential growth phase were treated with MIC and 1/2xMIC of the methanol extract (500 μL), compound 5 (500 μL), and oxacillin (500 μL) solutions and incubated at 37°C for 24 h. The suspension was centrifuged at 3000 rpm for 5 min to separate the supernatant. The pellet was washed twice with PBS and resuspended in 500 μL of cell lysate buffer (1 mM EDTA, 10 Mm Tris-HCl, 0.1% Triton-X-100, and 150 mM NaCl) and incubated at 37°C for 1 h. Contents were then centrifuged at 3000 rpm for 5 min, and the supernatant was collected for enzyme activity assays.
Catalase activity. This was assessed by using a kit (Sigma, catalogue no. CAT100) with a cell lysate. Briefly, 750 μL of assay buffer (50 mM) was mixed with 25 μL of 50 mM H2O2 and 10 μL of cell lysate. […] The absorbance was monitored at 520 nm, and the catalase activity was calculated based on the following equation: [Δμ moles (H2O2) × d × 100)/V × t], where Δμ moles (H2O2) is the difference in amount of H2O2 added to the reaction mixture between blank and given samples, d is the dilution of the original sample for catalase reaction, V is the sample volume in catalase reaction, and t is the reaction duration (min).

[4] = DPPH free radical scavenging assay; conditions: mean ± SD
Procedure: The free radical scavenging activity of extracts and compounds was evaluated according to the described method. The EC50 (μg/mL), which is the amount of sample necessary to inhibit by 50% the absorbance of free radical DPPH, was calculated. Vitamin C was used as a standard control. All the analyses were carried out in triplicate and repeated three times.

[5] = tested on: superoxide dismutase (SOD); assay: Superoxide dismutase (SOD) activity in treated bacterial cell lysates; assay type: cell-based; conditions: Staphylococcus aureus ATCC25923 and MRSA03, MIC and 1/2xMIC, 24 h
Procedure: as §2
Superoxide dismutase (SOD) activity. This was determined using a kit (Sigma, catalogue no. 19160) in the cell lysate. […] The reaction mixture was incubated in the dark at 37°C for 20 min, and the absorbance was read at 450 nm on a BioTek Synergy 2 multiplate reader. The SOD activity was calculated based on the following formula: [(ABlank1–ABlank3) − (ASample–ABlank2)/(ABlank1–ABlank3) × 100], where Blank 1 contains ultrapure water, WST solution, and enzyme solution, Blank 2 contains sample solution, WST solution, and dilution buffer, and Blank 3 contains ultrapure water, WST solution, and dilution buffer.

4,7,2′-trihydroxy-4′-methoxyisoflavanol [compound 5]
Gallic acid equivalent antioxidant capacity (GEAC) [1]: 61.05 ± 0.90^h μg/mL | decline in cell turbidity [2]: 99.85% | decline in cell turbidity [3]: 99.87% | catalase activity vs untreated cell lysates (catalase): significant concentration-dependent decreases | DPPH free radical scavenging activity (EC50) [4]: 11.58 ± 0.73^f μg/mL | SOD activity vs untreated cell lysates [5]: significant concentration-dependent decreases
